Data: patent US20260226048A1, “MULTI-CYCLIC IRAK AND FLT3 INHIBITING COMPOUNDS AND USES THEREOF” (CHILDREN'S HOSPITAL MEDICAL CENTER, priority 2023, published 2026)
Like-named read-outs stand apart in the source and are kept apart here.

Columns and labels:
IRAK1 = molecular target: T1, IRAK1 (Homo sapiens, UniProt P51617); assay: RBC HotSpot Kinase Assay, IRAK1; assay type: biochemical; details: isolated kinase enzyme, 33P-ATP, P81 filter-binding
T1 construct: purchased Reaction Biology (RBC HotSpot)
T1 sequence (P51617 whole entry): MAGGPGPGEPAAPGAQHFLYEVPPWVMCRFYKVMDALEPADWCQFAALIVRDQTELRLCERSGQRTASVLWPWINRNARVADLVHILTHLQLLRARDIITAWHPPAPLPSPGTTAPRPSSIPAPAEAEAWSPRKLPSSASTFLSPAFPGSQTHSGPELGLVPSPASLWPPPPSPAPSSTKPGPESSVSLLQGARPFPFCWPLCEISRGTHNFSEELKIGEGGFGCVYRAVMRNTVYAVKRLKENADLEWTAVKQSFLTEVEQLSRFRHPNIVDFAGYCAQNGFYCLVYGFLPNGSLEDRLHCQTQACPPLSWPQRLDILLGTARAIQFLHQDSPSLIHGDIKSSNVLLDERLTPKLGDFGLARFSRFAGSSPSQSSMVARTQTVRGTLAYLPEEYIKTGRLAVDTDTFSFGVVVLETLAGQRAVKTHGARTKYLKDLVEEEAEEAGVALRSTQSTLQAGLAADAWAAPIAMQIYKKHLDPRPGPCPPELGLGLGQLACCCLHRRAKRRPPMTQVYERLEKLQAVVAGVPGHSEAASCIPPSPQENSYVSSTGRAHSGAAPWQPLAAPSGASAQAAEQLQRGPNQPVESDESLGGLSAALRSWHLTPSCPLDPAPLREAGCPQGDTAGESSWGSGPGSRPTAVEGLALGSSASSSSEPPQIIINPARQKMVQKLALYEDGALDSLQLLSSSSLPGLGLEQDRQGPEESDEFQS
Summary of the method: (§1)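 Reactions ran in 20 mM Hepes (pH 7.5) containing 10 mM MgCl2, 1 mM EGTA, 0.1 mM Na3VO4, 2 mM DTT, 0.02 mg/ml BSA, 0.01% Brij35 and 1% DMSO, plus required cofactors. Functional activity readout on the expressible enzyme form, sometimes C-terminally truncated or lacking receptor regulatory regions.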

MOLM14 D835Y cells = assay: MOLM14 D835Y cell viability assay (Cell Titer Glo); assay type: cell-based; details: cell viability, Cell Titer Glo, 48 hours, read-out: MOLM14 D835Y IC50
Summary of the method: (§2)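 Luminescent ATP read-out (CellTiter-Glo, 15 min room temperature) taken 48 h after compound addition. Cells were MOLM14 carrying FLT3 D835Y or F691L mutations, plated at 1000 cells per well.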

THP1 cells (FLT3 WT) = assay: Combination drug screening with venetoclax in THP1 cells (Cell Titre Glo, 10 × 10); assay type: cell-based; details: for Excess HSA (sum excess HSA score, combination with venetoclax): 10 × 10 dataset, Cell Titre Glo at 48 hours, optimal of 4 dose combinations, negative = synergy; for Concentration needed to decrease the 312.5 nM Venetoclax response to <20%: Cell Titer Glo at 48 hours
Protocol: (§3) These assays were performed using the Cell Titre Glo assay, measured at 48 hours.
(§4) A smaller concentration indicates higher potency to synergize with Venetoclax.

[1] = test system: MOLM14-D835Y cells (FLT3-ITD (D835Y) mutant); assay: Combination drug screening with venetoclax in MOLM14 (D835Y) cells (Cell Titre Glo, 10 × 10); assay type: cell-based; design: Excess HSA (sum excess HSA score, combination with venetoclax): scale not given here; details: for Excess HSA (sum excess HSA score, combination with venetoclax): 10 × 10 dataset, Cell Titre Glo at 48 hours, optimal of 4 dose combinations, negative = synergy; for Concentration of a compound of the disclosure, or gilteritinib, needed to decrease the 62.5 nM Ven response to <10% in MOLM14(D835Y) cells: combination with 62.5 nM Venetoclax, Cell Titer Glo, 48 hours, response <10%
Protocol: as §3, §4

IRAK4 = molecular target: T2, IRAK4 (Homo sapiens, UniProt Q9NWZ3); assay: RBC HotSpot Kinase Assay, IRAK4; assay type: biochemical; design: purchased Reaction Biology (RBC HotSpot); details: isolated kinase enzyme, 33P-ATP, P81 filter-binding
T2 sequence (Q9NWZ3 1-460): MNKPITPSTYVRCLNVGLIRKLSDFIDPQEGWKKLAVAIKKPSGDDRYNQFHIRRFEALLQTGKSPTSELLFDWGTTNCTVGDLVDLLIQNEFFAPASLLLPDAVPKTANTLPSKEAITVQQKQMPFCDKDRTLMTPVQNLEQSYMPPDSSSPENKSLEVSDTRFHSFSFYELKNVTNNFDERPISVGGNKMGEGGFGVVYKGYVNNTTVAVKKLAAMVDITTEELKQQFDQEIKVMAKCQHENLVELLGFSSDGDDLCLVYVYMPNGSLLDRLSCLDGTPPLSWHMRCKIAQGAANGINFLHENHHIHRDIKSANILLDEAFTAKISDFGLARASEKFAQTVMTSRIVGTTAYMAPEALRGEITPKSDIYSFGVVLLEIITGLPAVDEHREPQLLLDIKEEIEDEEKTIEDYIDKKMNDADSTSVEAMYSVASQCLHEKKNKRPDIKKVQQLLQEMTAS
Summary of the method: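 Radiometric filter-binding activity assay with isolated recombinant kinase (construct may be truncated or catalytic domain only) in 20 mM Hepes pH 7.5, 10 mM MgCl2, 1 mM EGTA, 2 mM DTT, 1% DMSO. Compound preincubated 20 min with kinase/substrate; reaction started with 33P-ATP, run 2 h at room temperature.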

FLT3 = molecular target: T3, FLT3 (Homo sapiens, UniProt P36888); assay: RBC HotSpot Kinase Assay, FLT3; assay type: biochemical; design: purchased Reaction Biology (RBC HotSpot); details: isolated kinase enzyme, 33P-ATP, P81 filter-binding
T3 sequence (P36888 27-993): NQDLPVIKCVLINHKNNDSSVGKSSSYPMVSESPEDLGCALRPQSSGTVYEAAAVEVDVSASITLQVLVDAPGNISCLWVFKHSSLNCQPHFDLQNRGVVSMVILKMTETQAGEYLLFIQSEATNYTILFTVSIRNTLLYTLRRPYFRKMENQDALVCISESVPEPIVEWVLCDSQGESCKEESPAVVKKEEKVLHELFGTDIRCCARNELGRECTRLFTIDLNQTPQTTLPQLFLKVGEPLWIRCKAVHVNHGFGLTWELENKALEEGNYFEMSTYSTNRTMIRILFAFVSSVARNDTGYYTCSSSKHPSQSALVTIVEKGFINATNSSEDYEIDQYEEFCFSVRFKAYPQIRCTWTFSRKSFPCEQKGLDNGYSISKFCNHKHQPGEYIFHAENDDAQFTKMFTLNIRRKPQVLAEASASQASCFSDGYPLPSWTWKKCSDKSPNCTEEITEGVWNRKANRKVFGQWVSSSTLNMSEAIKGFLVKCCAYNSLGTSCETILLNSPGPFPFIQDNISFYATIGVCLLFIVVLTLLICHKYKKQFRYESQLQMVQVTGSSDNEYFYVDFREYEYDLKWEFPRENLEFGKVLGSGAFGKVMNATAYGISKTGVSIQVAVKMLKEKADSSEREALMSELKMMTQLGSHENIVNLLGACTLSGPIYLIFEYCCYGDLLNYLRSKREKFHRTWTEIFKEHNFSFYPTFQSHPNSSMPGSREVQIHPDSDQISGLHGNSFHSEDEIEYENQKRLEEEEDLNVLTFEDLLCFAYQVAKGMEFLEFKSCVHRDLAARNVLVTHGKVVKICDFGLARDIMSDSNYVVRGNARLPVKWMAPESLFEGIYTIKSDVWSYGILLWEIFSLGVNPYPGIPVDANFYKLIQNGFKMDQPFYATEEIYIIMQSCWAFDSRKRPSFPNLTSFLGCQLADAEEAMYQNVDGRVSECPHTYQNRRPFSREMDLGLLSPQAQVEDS
Summary of the method: as §1

MOLM14 F691L cells = assay: MOLM14 F691L cell viability assay (Cell Titer Glo); assay type: cell-based; details: Homo sapiens, MOLM-14; cell viability, Cell Titer Glo, 48 hours; read-out: MOLM14 F691L IC50
Summary of the method: as §2

[2] = test system: NF-κB-inducible SEAP reporter in THP-1-Blue NF-κB cells; assay: NF-kB SEAP reporter assay in THP-1-Blue NF-κB cells; assay type: cell-based; details: 24 hours
Protocol: THP-1-Blue NF-κB cells (InvivoGen) carrying a stable integrated NF-κB-inducible secreted embryonic alkaline phosphatase (SEAP) reporter construct were plated at a concentration of 1×10^5 cells per well. The cells were stimulated with Pam3CSK4 (1 ng/mL) or hIL1B (1 ng/mL). After 10-20 minutes, the cells were then treated with vehicle (DMSO) or serial dilutions of the test compounds (10 doses tested for each test compound, with a 1:10 dilution series starting at 1 μM or 3 μM) with a final volume of 200 μL for 24 hours at 37° C. After 24 hours, the cells were centrifuged and 20 μL supernatant was incubated with 180 μL QUANTI-Blue reagent at 37° C. for 30-60 minutes. The levels of NF-κB-induced was measured in a microplate reader at 620 nm.

Compound	IC50 (IRAK1) [nM]	IC50 (MOLM14 D835Y cells; Homo sapiens, MOLM-14, 48 h) [nM]	Excess HSA (sum excess HSA score, combination with venetoclax) (THP1 cells (FLT3 WT))	Concentration needed to decrease the 312.5 nM Venetoclax response to <20% (THP1 cells (FLT3 WT)) [µM]	Excess HSA (sum excess HSA score, combination with venetoclax) [1]	Concentration of a compound of the disclosure, or gilteritinib, needed to decrease the 62.5 nM Ven response to <10% in MOLM14(D835Y) cells [1] [nM]	IC50 (IRAK4) [nM]	IC50 (FLT3) [nM]	IC50 (MOLM14 D835Y cells) [nM]	IC50 (MOLM14 F691L cells) [nM]	IC50 ([2]; THP-1-Blue NF-κB cells stimulated with Pam3CSK4 (1 ng/mL), read-out: NF-κB Pam3SCK4 IC50) [nM]	IC50 ([2]; THP-1-Blue NF-κB cells stimulated with hIL1B (1 ng/mL), read-out: NF-κB IL1B IC50) [nM]
CC(O)(c1ccc2ncc(-c3nc(N[C@H]4CNCC[C@@H]4F)ncc3F)n2c1)C(F)(F)F (single isomer, unassigned) [Compound 34a]	4	51	−683.5	1.25	−1437.9420	100	2	0.6				
CC(O)(c1ccc2ncc(-c3nc(N[C@H]4CNCC[C@@H]4F)ncc3F)n2c1)C(F)(F)F (single isomer, unassigned) [Compound 35a]	0.9		−937.7	1.25	−1543	25	0.7	< 0.5	26			
COc1cc2ncc(-c3nc(N[C@H]4CNCC[C@@H]4F)ncc3F)n2nc1C1CCC1 [Compound 54a, 4-(6-cyclobutyl-7-methoxyimidazo[1,2-b]pyridazin-3-yl)-5-fluoro-N-((3S,4S)-4-fluoropiperidin-3-yl)pyrimidin-2-amine]	< 0.5	1	−807.2	5	−1490	1.6	< 0.5	< 0.5		7		
COc1cc2ncc(-c3nc(N[C@H]4CNCC[C@@H]4F)ncc3F)n2nc1C1CC(C)(C)C1 [Compound 57a, 4-(6-(3,3-dimethylcyclobutyl)-7-methoxyimidazo[1,2-b]pyridazin-3-yl)-5-fluoro-N-((3S,4S)-4-fluoropiperidin-3-yl)pyrimidin-2-amine]	2	11	−1308.2250		−1762		1			90	157	167
COc1cc2ncc(-c3ccnc(N[C@H]4CNCC[C@@H]4F)n3)n2nc1C1CC2(CCC2)C1 [Compound 74a, N-((3S,4S)-4-fluoropiperidin-3-yl)-4-(7-methoxy-6-(spiro[3.3]heptan-2-yl)imidazo[1,2-b]pyridazin-3-yl)pyrimidin-2-amine]	91	80	−456.1	5	−1335	312	26	< 0.5		1000		
COc1cc2ncc(-c3ccnc(N[C@H]4CNCC[C@@H]4F)n3)n2nc1C1CC(C)(C)C1 [Compound 82a, 4-(6-(3,3-dimethylcyclobutyl)-7-methoxyimidazo[1,2-b]pyridazin-3-yl)-N-((3S,4S)-4-fluoropiperidin-3-yl)pyrimidin-2-amine]	174	127	−1292.2960	5	−1679	39	45	< 0.5		1130		
COc1cnc(N[C@H]2CNC[C@@H]2F)nc1-c1cnc2cc(OC)c(C3CC3)nn12 [Compound 104a, 4-(6-cyclopropyl-7-methoxyimidazo[1,2-b]pyridazin-3-yl)-N-((3S,4S)-4-fluoropyrrolidin-3-yl)-5-methoxypyrimidin-2-amine]	4860	711			−2179		25	14		6340		
CCc1nc(C(N)=O)c(Nc2ccc(N3CCC(N4CCN(C)CC4)CC3)c(OC)c2)nc1NC1CCOCC1 [Gilteritinib, reference compound]			−1626	10	−1556	125						
